Measurements published in patent publication US11826351B2, “Compounds useful as kinase inhibitors” (Loxo Oncology, Inc., priority 2015, dated 2023).
Read-outs that look alike come from different tables or passages of the source.

Legend:
[1] = target: T1, Recombinant BTK^WT kinase (Homo sapiens, UniProt Q06187); experiment: BTK WT binding affinity (LanthaScreen TR-FRET); conditions: Kinase Tracer 236, 5 h incubation
T1 construct: purchased Invitrogen
Outline: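 Tracer-displacement TR-FRET: 2.5 nM recombinant BTK^WT, 2 nM Eu anti-His antibody and 15 nM Kinase Tracer 236 incubated with varying inhibitor concentrations for 5 h in Kinase Buffer A. Signal read at 340 nm excitation, 615/665 nm emission; IC50 from variable-slope log[inhibitor]–response fit.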

[2] = target: T2, Recombinant BTK^C481S kinase (Homo sapiens, UniProt Q06187, C481S); experiment: BTK C481S binding affinity (LanthaScreen TR-FRET); conditions: Kinase Tracer 236, 5 h incubation
T2 construct: purchased SignalChem
Outline: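 BTK C481S tracer-displacement TR-FRET: 5 nM His-tagged kinase, 2 nM Eu anti-His antibody and 30 nM Kinase Tracer 236 incubated with titrated inhibitor for 5 h in Kinase Buffer A. Read at 340 nm excitation, 615/665 nm emission; IC50 from variable-slope log[inhibitor]–response fit.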

[3] = target: T3, Recombinant EGFR (Homo sapiens, UniProt P00533); experiment: EGFR binding affinity (LanthaScreen TR-FRET); conditions: Kinase Tracer 199, 5 h incubation
T3 construct: purchased Invitrogen
Outline: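 TR-FRET binding (LanthaScreen) with recombinant EGFR; signal measured across a compound concentration range. IC50 obtained by fitting RFU against log[inhibitor] to a variable-slope model.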

[4] = test system: OCI-Ly10 human DLBCL cells; experiment: OCI-Ly10 anti-proliferative activity (Resazurin); format: cell-based; conditions: OCI-Ly10 cells, 72 h compound treatment, Resazurin, read-out: Proliferation Assay OCI-Ly10-20% FBS
Outline: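 OCI-Ly10 human DLBCL cells, whose growth depends on NFκB signalling, were seeded at 7.5×10^3 cells per well in 96-well plates with a range of compound concentrations and kept at 37° C for 72 h. Resazurin was then added, and after 5 h fluorescence was read at 590 nm.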

T2 sequence (Q06187 whole entry C481S): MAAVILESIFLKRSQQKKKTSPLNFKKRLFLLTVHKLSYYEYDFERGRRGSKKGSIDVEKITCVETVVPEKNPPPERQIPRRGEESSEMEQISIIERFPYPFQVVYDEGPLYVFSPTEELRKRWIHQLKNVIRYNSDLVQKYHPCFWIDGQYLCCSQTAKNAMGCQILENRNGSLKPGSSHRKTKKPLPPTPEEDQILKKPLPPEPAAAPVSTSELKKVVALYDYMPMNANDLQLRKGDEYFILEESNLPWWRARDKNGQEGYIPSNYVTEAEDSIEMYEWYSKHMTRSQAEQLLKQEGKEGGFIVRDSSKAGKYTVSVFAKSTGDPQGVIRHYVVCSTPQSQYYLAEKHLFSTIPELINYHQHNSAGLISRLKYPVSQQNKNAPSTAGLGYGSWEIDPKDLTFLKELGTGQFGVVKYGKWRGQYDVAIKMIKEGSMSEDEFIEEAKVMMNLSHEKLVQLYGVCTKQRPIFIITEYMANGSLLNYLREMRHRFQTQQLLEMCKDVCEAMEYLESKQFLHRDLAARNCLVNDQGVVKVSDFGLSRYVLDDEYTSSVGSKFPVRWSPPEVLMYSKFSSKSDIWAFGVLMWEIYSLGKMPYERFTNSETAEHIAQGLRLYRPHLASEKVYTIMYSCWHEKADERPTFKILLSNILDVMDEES
T3 sequence (P00533 25-1210): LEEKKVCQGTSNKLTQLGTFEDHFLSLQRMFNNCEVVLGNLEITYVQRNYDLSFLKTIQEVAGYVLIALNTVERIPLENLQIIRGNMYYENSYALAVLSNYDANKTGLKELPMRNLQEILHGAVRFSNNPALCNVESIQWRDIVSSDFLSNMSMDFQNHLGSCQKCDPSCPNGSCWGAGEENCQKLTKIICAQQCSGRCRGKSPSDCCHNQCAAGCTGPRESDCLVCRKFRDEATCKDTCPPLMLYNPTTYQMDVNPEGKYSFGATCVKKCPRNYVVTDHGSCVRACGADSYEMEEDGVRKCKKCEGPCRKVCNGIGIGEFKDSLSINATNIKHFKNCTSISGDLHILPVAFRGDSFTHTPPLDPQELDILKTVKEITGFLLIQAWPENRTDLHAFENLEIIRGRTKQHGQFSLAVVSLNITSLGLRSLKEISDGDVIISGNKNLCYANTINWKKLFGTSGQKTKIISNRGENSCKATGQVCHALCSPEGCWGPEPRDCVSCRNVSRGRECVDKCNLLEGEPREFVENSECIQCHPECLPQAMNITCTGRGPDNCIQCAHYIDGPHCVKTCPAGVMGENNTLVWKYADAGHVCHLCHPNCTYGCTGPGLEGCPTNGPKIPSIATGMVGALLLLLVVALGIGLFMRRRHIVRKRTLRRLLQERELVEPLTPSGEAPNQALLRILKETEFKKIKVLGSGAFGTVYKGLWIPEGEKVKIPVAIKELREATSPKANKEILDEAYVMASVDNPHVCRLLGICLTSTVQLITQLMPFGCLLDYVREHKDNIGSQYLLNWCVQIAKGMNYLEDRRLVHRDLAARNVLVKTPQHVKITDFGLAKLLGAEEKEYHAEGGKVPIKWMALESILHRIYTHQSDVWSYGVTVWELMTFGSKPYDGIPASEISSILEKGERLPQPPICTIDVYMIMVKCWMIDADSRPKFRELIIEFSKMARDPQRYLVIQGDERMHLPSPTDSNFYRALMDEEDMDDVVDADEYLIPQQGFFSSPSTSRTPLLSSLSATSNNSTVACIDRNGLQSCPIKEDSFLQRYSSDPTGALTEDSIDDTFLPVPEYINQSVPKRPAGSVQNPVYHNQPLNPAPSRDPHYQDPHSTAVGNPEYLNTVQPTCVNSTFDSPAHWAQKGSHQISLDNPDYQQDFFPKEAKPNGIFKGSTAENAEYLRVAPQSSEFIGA
T1 sequence (Q06187 whole entry): as the sequence (Q06187 whole entry C481S) above, with S481C counted along it

Compound | IC50 [1] [µM] | IC50 [2] [µM] | IC50 [3] [µM] | IC50 ([4]; Homo sapiens, OCI-Ly10, 72 h) [µM] | IC50 [4] [µM]
CCC(n1nc(-c2ccc(CNC(=O)c3ccccc3OC)cc2)c(C(N)=O)c1N)C(F)(F)F (stereo not shown) [Example 170, 5-amino-3-[4-[[(2-methoxybenzoyl)amino]methyl]phenyl]-1-[1-(trifluoromethyl)propyl]pyrazole-4-carboxamide] | 0.01 to 0.1 | < 0.01 | 1 to 10 | 0.1 to 1 | –
COc1ccccc1C(=O)NCc1ccc(-c2nn(C(C(C)C)C(F)(F)F)c(N)c2C(N)=O)cc1 (stereo not shown) [Example 171, 5-amino-3-[4-[[(2-methoxybenzoyl)amino]methyl]phenyl]-1-[2-methyl-1-(trifluoromethyl)propyl]pyrazole-4-carboxamide] | 0.01 to 0.1 | < 0.01 | 1 to 10 | 0.1 to 1 | –
COc1ccccc1C(=O)NCc1ccc(-c2nn(C3CCCC3)c(N)c2C(N)=O)c(C)c1 [Example 101, 5-amino-1-cyclopentyl-3-[4-[[(2-methoxybenzoyl)amino]methyl]-2-methyl-phenyl]pyrazole-4-carboxamide] | 0.01 to 0.1 | < 0.01 | > 10 | 0.1 to 1 | –
COc1ccccc1C(=O)NCc1ccc(-c2nn(C3CCC(O)CC3)c(N)c2C(N)=O)cc1 (single isomer, unassigned) [Example 34b, 5-Amino-1-(4-hydroxycyclohexyl)-3-[4-[[(2-methoxybenzoyl)amino]methyl]phenyl]pyrazole-4-carboxamide] | < 0.01 | < 0.01 | 1 to 10 | 0.01 to 0.1 | –
COc1ccc(F)cc1C(=O)NCc1c(F)cc(-c2nn(C3CCCC3)c(N)c2C(N)=O)cc1F [Example 139, 5-amino-1-cyclopentyl-3-[3,5-difluoro-4-[[(5-fluoro-2-methoxy-benzoyl)amino]methyl]phenyl]pyrazole-4-carboxamide] | 0.01 to 0.1 | < 0.01 | > 10 | 0.1 to 1 | –
COc1ccccc1C(=O)NCc1ccc(-c2nn(CC3(C)COC3)c(N)c2C(N)=O)cc1 [Example 8, 5-amino-3-[4-[[(2-methoxybenzoyl)amino]methyl]phenyl]-1-[(3-methyloxetan-3-yl)methyl]pyrazole-4-carboxamide] | 0.1 to 1 | 0.01 to 0.1 | > 10 | 0.1 to 1 | –
COc1ccccc1C(=O)NCc1ccc(-c2nn(C3C[C@@H]4C[C@@H]4C3)c(N)c2C(N)=O)cc1 (stereo partly shown) [Example 4, 5-Amino-1-(3-bicyclo[3.1.0]hexanyl)-3-[4-[[(2-methoxybenzoyl)amino]methyl]phenyl]pyrazole-4-carboxamide] | < 0.01 | < 0.01 | 0.1 to 1 | < 0.01 | –
COc1ccccc1C(=O)NCc1ccc(-c2nn(C3CCCC(C(=O)N(C)C)C3)c(N)c2C(N)=O)cc1 (single isomer, unassigned) [Example 70, 5-amino-1-[3-(dimethylcarbamoyl)cyclohexyl]-3-[4-[[(2-methoxybenzoyl)amino]methyl]phenyl]pyrazole-4-carboxamide] | < 0.01 | < 0.01 | 0.1 to 1 | 0.01 to 0.1 | –
COc1ccccc1C(=O)NCc1ccc(-c2nn(C(C)(C)C)c(N)c2C(N)=O)cc1 [Example 3, 5-amino-1-tert-butyl-3-[4-[[(2-methoxybenzoyl)amino]methyl]phenyl]pyrazole-4-carboxamide] | < 0.01 | < 0.01 | 0.1 to 1 | 0.01 to 0.1 | –

More lines, now with the values ahead:

IC50 [1] [µM] | IC50 [2] [µM] | IC50 [3] [µM] | IC50 ([4]; Homo sapiens, OCI-Ly10, 72 h) [µM] | IC50 [4] [µM] | Compound
< 0.01 | < 0.01 | 0.1 to 1 | 0.01 to 0.1 | – | COc1ccccc1C(=O)NCc1ccc(-c2nn(C3CCC(F)(F)CC3)c(N)c2C(N)=O)cc1 [Example 68, 5-amino-1-(4,4-difluorocyclohexyl)-3-[4-[[(2-methoxybenzoyl)amino]methyl]phenyl]pyrazole-4-carboxamide]
< 0.01 | < 0.01 | 1 to 10 | 0.01 to 0.1 | – | COc1ccccc1C(=O)NCc1ccc(-c2nn(C3CCCC3)c(N)c2C(N)=O)c(F)c1F [Example 155, 5-amino-1-cyclopentyl-3-[2,3-difluoro-4-[[(2-methoxybenzoyl)amino]methyl]phenyl]pyrazole-4-carboxamide]
< 0.01 | < 0.01 | 1 to 10 | 0.01 to 0.1 | – | COc1ccccc1C(=O)NCc1ccc(-c2nn(C3CCCC3F)c(N)c2C(N)=O)cc1 (stereo not shown) [Example 103, 5-amino-1-(2-fluorocyclopentyl)-3-[4-[[(2-methoxybenzoyl)amino]methyl]phenyl]pyrazole-4-carboxamide]
< 0.01 | < 0.01 | 0.1 to 1 | < 0.01 | – | COc1ccc(F)cc1C(=O)NCc1ccc(-c2nn(C3CCCC3)c(N)c2C(N)=O)cc1 [Example 88, 5-amino-1-cyclopentyl-3-[4-[[(5-fluoro-2-methoxy-benzoyl)amino]methyl]phenyl]pyrazole-4-carboxamide]
< 0.01 | < 0.01 | > 10 | 0.01 to 0.1 | – | COc1ccc(F)cc1C(=O)NCc1cc(F)c(-c2nn(C3CCCOC3)c(N)c2C(N)=O)cc1F (stereo not shown) [Example 149, 5-amino-3-[2,5-difluoro-4-[[(5-fluoro-2-methoxy-benzoyl)amino]methyl]phenyl]-1-tetrahydropyran-3-yl-pyrazole-4-carboxamide]
< 0.01 | < 0.01 | 1 to 10 | – | < 0.01 | COc1ccc(F)cc1C(=O)NCc1ccc(-c2nn([C@H](C)C(F)(F)F)c(N)c2C(N)=O)cc1 (single isomer, unassigned) [Example 163a, 5-amino-3-[4-[[(5-fluoro-2-methoxy-benzoyl)amino]methyl]phenyl]-1-(2,2,2-trifluoro-1-methyl-ethyl)pyrazole-4-carboxamide]
< 0.01 | < 0.01 | 1 to 10 | 0.01 to 0.1 | – | COc1ccccc1C(=O)NCc1ccc(-c2nn(-c3ccccc3)c(N)c2C(N)=O)cc1 [Example 22, 5-Amino-3-[4-[[(2-methoxybenzoyl)amino]methyl]phenyl]-1-phenyl-pyrazole-4-carboxamide]
< 0.01 | < 0.01 | > 10 | 0.1 to 1 | – | COc1ccc(F)cc1C(=O)NCc1cc(F)c(-c2nn(C3CCOCC3)c(N)c2C(N)=O)cc1F [Example 146, 5-amino-3-[2,5-difluoro-4-[[(5-fluoro-2-methoxy-benzoyl)amino]methyl]phenyl]-1-tetrahydropyran-4-yl-pyrazole-4-carboxamide]
< 0.01 | < 0.01 | 0.1 to 1 | 0.01 to 0.1 | – | COc1ccccc1C(=O)NCc1ccc(-c2nn(-c3ccccn3)c(N)c2C(N)=O)cc1 [Example 53, 5-amino-3-[4-[[(2-methoxybenzoyl)amino]methyl]phenyl]-1-(2-pyridyl)pyrazole-4-carboxamide]
< 0.01 | < 0.01 | 0.1 to 1 | 0.01 to 0.1 | – | COc1ccccc1C(=O)NCc1ccc(-c2nn(C3CCCOC3)c(N)c2C(N)=O)cc1 (stereo not shown) [Example 80, 5-amino-3-[4-[[(2-methoxybenzoyl)amino]methyl]phenyl]-1-tetrahydropyran-3-yl-pyrazole-4-carboxamide]
